How the values were obtained:
[1] = molecular target: T1, Prostaglandin E2 receptor EP3 subtype (Homo sapiens, UniProt P43115); experiment: Binding affinity was determined against prostanoid EP3 receptor
T1 sequence (P43115 whole entry): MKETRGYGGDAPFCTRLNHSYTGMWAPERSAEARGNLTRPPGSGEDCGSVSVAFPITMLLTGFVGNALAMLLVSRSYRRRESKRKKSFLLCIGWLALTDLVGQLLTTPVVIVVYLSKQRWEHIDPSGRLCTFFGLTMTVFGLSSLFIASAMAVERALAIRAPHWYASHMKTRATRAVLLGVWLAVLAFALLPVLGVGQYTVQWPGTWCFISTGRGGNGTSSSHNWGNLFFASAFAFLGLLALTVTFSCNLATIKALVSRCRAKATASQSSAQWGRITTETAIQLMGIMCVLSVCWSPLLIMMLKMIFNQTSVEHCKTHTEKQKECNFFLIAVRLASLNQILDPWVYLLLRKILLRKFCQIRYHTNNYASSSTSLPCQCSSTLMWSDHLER

[2] = molecular target: T2, Prostaglandin E2 receptor EP4 subtype (Homo sapiens, UniProt P35408); experiment: Binding affinity was determined against prostanoid EP4 receptor
[3] = molecular target: T3, Prostaglandin E2 receptor EP1 subtype (Homo sapiens, UniProt P34995); experiment: Binding affinity was determined against prostanoid EP1 receptor
T3 sequence (P34995 whole entry): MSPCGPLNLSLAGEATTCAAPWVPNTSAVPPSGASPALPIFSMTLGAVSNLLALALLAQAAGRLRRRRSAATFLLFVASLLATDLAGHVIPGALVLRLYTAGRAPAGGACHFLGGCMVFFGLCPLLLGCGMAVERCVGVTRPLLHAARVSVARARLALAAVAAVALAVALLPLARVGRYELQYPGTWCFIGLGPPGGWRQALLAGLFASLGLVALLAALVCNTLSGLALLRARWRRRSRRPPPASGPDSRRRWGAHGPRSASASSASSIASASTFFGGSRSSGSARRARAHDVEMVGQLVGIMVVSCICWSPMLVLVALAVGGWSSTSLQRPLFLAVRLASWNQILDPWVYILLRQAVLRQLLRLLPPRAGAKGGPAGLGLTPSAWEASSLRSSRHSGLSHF

[4] = molecular target: T2, Prostaglandin E2 receptor EP4 subtype; experiment: Agonist activity against recombinant prostanoid EP4 receptor stably transfected in CHO cells; type: functional, cell-based
[5] = molecular target: Prostaglandin E2 receptor EP2 subtype (Homo sapiens, UniProt P43116); experiment: Binding affinity was determined against prostanoid EP2 receptor
Chain of Prostaglandin E2 receptor EP2 subtype (P43116 whole entry): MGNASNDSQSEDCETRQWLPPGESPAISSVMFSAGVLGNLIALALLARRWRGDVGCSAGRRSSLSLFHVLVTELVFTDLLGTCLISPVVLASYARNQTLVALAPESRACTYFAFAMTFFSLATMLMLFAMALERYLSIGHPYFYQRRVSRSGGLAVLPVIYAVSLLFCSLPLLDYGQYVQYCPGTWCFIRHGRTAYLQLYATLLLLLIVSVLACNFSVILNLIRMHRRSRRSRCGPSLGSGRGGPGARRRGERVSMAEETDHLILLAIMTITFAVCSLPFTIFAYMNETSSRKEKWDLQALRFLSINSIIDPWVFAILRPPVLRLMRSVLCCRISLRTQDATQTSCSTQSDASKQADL

T2 sequence (P35408 whole entry): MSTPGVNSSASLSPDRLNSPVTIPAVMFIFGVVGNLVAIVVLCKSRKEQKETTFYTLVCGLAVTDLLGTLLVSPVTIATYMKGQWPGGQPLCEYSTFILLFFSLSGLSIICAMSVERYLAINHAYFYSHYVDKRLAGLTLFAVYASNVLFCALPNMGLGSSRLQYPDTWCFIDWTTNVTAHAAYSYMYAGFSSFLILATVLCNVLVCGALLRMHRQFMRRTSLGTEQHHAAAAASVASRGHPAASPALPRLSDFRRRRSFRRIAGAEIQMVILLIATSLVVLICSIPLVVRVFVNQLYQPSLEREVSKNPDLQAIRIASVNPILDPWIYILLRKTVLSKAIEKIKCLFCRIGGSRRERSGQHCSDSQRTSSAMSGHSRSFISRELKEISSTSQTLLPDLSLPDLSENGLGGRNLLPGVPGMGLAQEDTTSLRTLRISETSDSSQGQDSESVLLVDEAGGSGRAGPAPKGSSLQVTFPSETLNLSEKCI

Ki [1] [µM] | Ki [2] [µM] | Ki [3] [µM] | EC50 [4] [µM] | Ki [5] [µM] | SMILES
> 100 | 0.032 | 50 | 0.085 | – | O=C(O)CCCCCCN1C(=O)CC[C@@H]1/C=C/C(O)c1cccc(Oc2ccccc2)c1 (some centres not stated)
12 | 0.0074 | – | 0.13 | – | O=C(O)CCCCCCN1C(=O)CC[C@@H]1CC[C@@H](O)c1cccc(C(F)(F)F)c1
– | – | – | 200 | – | CCCCC[C@@H](O)/C=C/[C@@H]1CCC(=O)N1CCCCCCC(=O)O
38 | 0.016 | – | 0.46 | 22 | O=C(O)CCCCCCN1C(=O)CC[C@@H]1CC[C@@H](O)Cc1cccc(C(F)(F)F)c1
– | – | – | > 10 | – | O=C(O)CCCCCCN1C(=O)CC[C@@H]1CCC(=O)c1cccc(C(F)(F)F)c1
– | – | – | 6.1 | – | CCCCC[C@@H](O)/C=C/[C@H]1CCC(=O)N1CCCCCCC(=O)O
56 | 0.0042 | – | 0.2 | > 100 | O=C(O)CCCCCCN1C(=O)CC[C@@H]1/C=C/[C@@H](O)CC1CCC1
12 | – | > 100 | 0.017 | – | O=C(O)CCCCCCN1C(=O)CC[C@@H]1/C=C/C(O)Cc1cccc(C(F)(F)F)c1 (some centres not stated)
> 100 | 0.42 | – | 0.17 | 85 | O=C(O)CCCCCCN1C(=O)CC[C@@H]1/C=C/C(O)c1cccc(-c2cccc(Cl)c2)c1 (some centres not stated)
20 | – | 28 | 0.18 | 164 | O=C(O)CCCCCCN1C(=O)CC[C@@H]1/C=C/C(O)C1(c2ccccc2)CC1 (some centres not stated)
> 100 | 0.36 | – | 0.36 | 32 | O=C(O)CCCCCCN1C(=O)CC[C@@H]1/C=C/C(O)c1cccc(-c2ccccc2)c1 (some centres not stated)
– | 2.3 | – | > 10 | 41 | O=C(O)CCCCCCN1C(=O)CC[C@@H]1/C=C/C(O)c1ccccc1 (some centres not stated)
– | – | – | > 100 | – | CCCCC[C@H](O)/C=C/[C@@H]1CCC(=O)N1CCCCCCC(=O)O
> 100 | 0.39 | – | 0.05 | 4.2 | O=C(O)CCCCCCN1C(=O)CC[C@@H]1/C=C/C(O)c1cccc(-c2ccc(Cl)cc2)c1 (some centres not stated)
> 100 | 0.0049 | – | 0.013 | > 100 | Cc1cc(O)ccc1-c1cccc(C(O)/C=C/[C@H]2CCC(=O)N2CCCCCCC(=O)O)c1 (some centres not stated)
4.9 | 0.01 | – | 0.04 | 58 | O=C(O)CCCCCCN1C(=O)CC[C@@H]1/C=C/C(O)c1ccc(C(F)(F)F)o1 (some centres not stated)
> 100 | 0.0062 | – | 0.04 | 42 | O=C(O)CCCCCCN1C(=O)CC[C@@H]1/C=C/C(O)c1cccc(-c2ccccc2Cl)c1 (some centres not stated)
100 | – | – | – | 31 | O=C(O)CCCCCCN1C(=O)CC[C@@H]1/C=C/C(O)Cc1ccccc1 (some centres not stated)
– | – | – | 42 | – | O=C(O)CCCCCCN1C(=O)CC[C@@H]1/C=C/C(O)c1ccccc1-c1ccccc1 (some centres not stated)
16 | 0.0075 | – | 0.12 | 71 | O=C(O)CCCCCCN1C(=O)CC[C@@H]1/C=C/[C@@H](O)CC1CCCCC1
> 100 | 0.0082 | – | 0.015 | 26 | Cc1cc(O)ccc1-c1cccc([C@H](O)CC[C@H]2CCC(=O)N2CCCCCCC(=O)O)c1
131 | 0.14 | – | 0.5 | 68 | O=C(O)CCCCCCN1C(=O)CC[C@@H]1/C=C/C(O)c1cccc(C(F)(F)F)c1 (some centres not stated)
38 | 0.0031 | – | 0.0008 | > 100 | Cc1cc(Cl)ccc1-c1cccc(C(O)/C=C/[C@H]2CCC(=O)N2CCCCCCC(=O)O)c1 (some centres not stated)
13 | 0.0016 | > 100 | 0.012 | 29 | O=C(O)CCCCCCN1C(=O)CC[C@@H]1/C=C/[C@@H](O)Cc1cccc(C(F)(F)F)c1
3 | 0.0045 | > 100 | 0.056 | 4.5 | CCCCC[C@H](O)/C=C/[C@H]1CCC(=O)N1CCCCCCC(=O)O

From ChEMBL document CHEMBL1137967, “Lactams as EP4 prostanoid receptor subtype selective agonists. Part 1: 2-Pyrrolidinones-stereochemical and lower side-chain optimization” (Bioorg Med Chem Lett, 2004)
